# Assays:
# [1] = system: DSS-induced inflammatory bowel disease mice; assay: Colon length in DSS-induced inflammatory bowel disease mice (Example 6.2); type: in vivo; conditions: DSS + β-lapachone 80 mg/kg
# Description: (§1) After 8-week-old C57BL/6 female mice (Samtako, Korea) were divided into each group (=10), each experimental group was fed a standard rodent diet supplemented with 3% (w/w) DSS in drinking water for the first 5 days to induce acute colitis and orally administered control (vehicle), β-lapachone 40 mg/kg, and β-lapachone 80 mg/kg for 14 days.
# By the same method as in Example 6.1, experimental groups were divided into a DSS untreated group (Control), a DSS treated group, and a DSS+β-lapachone 80 mg/kg treated group, respectively, and treated. After the end of the experiment, the mice were sacrificed to remove the colon, and the accurate colon length was measured using a Vernier caliper, and is shown FIGS. 11A and 11B. In addition, the mRNA levels of genes of interleukin-1beta (IL-1β), interleukin-6 (IL-6), interleukin-18 (IL-18), interferon-γ (INF-γ), tumor necrosis factor-α (TNF-α), tumor necrosis factor-β (TNF-β), and monocyte chemoattractant protein-1 (MCP-1), which were inflammatory cytokine factors in the colon tissue, were analyzed by a real-time polymerase chain reaction through a conventional experiment procedure, and are shown in FIG. 12.
# fibrosis-related genes [2] = assay: Real-time PCR of fibrosis-related genes in liver tissue, preventive β-lapachone in DDC mice (Example 2.3); type: in vivo; conditions: DDC-BL40 and DDC-BL80 vs DDC-vehicle, DDC 14 days
# Description: DDC-induced cholestatic liver disease mouse animal models were prepared according to the method of Elisa Pose et al. by using 8-week-old C57BL/6 male mice (Samtako, Korea). Briefly, cholestatic liver disease was induced by feeding a standard rodent diet supplemented with 0.1% (w/w) DDC for 7 or 14 days. The 12-hour light and dark cycle was maintained and animals were allowed to free access to water. The standard rodent diet included medium wheat, wheat, corn, and corn gluten flour, and soybean oil (14% protein). All animal related procedures were reviewed and approved by the Institutional Animal Care and Use Committee of Korea Research Institute of Bioscience and Biotechnology (KRIBB), KRIBB-AEC-20165). To investigate the preventive effect of β-Lapachone (BL) on cholestatic liver disease, the mice were fed a diet with 0 (DDC-vehicle), 40 mg/kg (DDC-BL40) and 80 mg/kg (DDC-BL80) 3 days before DDC treatment (total 17 days) and, after 3 days, were fed a diet with DDC (total 14 days). After 14 days of DDC treatment, the mice were sacrificed and the liver was harvested including the portal vein (PV) and bile ducts of the mice, and the surrounding lesions were confirmed by H&E, and are shown in FIG. 1. The expression of the factors in the liver tissue obtained from the cholestatic liver disease mouse animal models of Example 2.1 was performed by a real-time polymerase chain reaction was performed according to the following procedure. Total RNA from liver samples was extracted using Tri-RNA Reagent (Favrogen BIOTECH CORP, Nong-Ke Rd, Taiwan) according to the procedure presented by Favrogen, and was reverse transcribed into cDNA by using PrimeScript™ RT reagent Kit with gDNA Eraser (TAKARA Korea Biomedical Inc, Seoul, 08506, Korea). Quantitative PCR was performed using TB Green™ Premix Ex Taq™ II (Tli RNaseH Plus), ROX plus (TAKARA Korea Biomedical Inc, Seoul, 08506, Korea) and QuantStudio 5 Real-Time PCR Instrument (Thermo Fisher Scientific, Waltham, MA, USA).
# [3] = system: DSS-induced inflammatory bowel disease mice; assay: Survival rate, body weight and colitis score in DSS-induced acute colitis mice (Example 6.1); type: in vivo; conditions: for mice died: 14th day of the experiment (DSS alone 70%)
# Description: Dextran sodium sulfate (DSS)-induced acute colitis mouse models were constructed using 8-week-old C57BL/6 female mice (Samtako, Korea).
# as §1
# All animal-related procedures were discussed and approved by the Institutional Animal Care and Use Committee of the Hanyang University. The survival rate over time is shown in FIG. 9, and the change rate in body weight of mice in each experimental group was measured and shown in FIG. 10A. The fecal occult bleeding per rectum, total bleeding loss, and fecal concentration were measured daily.
# [4] = system: DDC-induced cholestatic liver disease mice; assay: Treatment effect on blood bilirubin and ALP in cholestatic liver disease-induced mice (Example 4); type: in vivo
# Description: The treatment effect of β-lapachone in cholestatic liver disease-induced mouse animals were investigated. After 8-week-old C57BL/6 male mice (Samtako, Korea) were divided into each group (=6), each group excluding a control group was fed a diet containing 0.1% DDC for 3 days. Thereafter, the mice were fed a diet with DDC control (vehicle), DDC+β-lapachone 20 mg/kg, DDC+β-lapachone 40 mg/kg, DDC+β-lapachone 80 mg/kg, and positive control DDC+obeticholic acid 30 mg/kg for 4 days (total 7 days). After 7 days of feeding, the mice were sacrificed and then the blood was collected from the heart.
# fibrosis-related genes [5] = assay: mRNA levels of fibrosis-related genes in liver tissue (Example 3.2); type: in vivo, mice; conditions: β-lapachone with DDC in diet, 7 days; depending on the concentration
# Description: After 8-week-old C57BL/6 male mice (Samtako, Korea) were divided into each group (=6), the mice were fed a diet with normal (vehicle), control (DDC), DDC+β-lapachone 20 mg/kg, DDC+β-lapachone 40 mg/kg, DDC+β-lapachone 80 mg/kg, DDC+β-lapachone 100 mg/kg, and positive control DDC+ursodeoxycholic acid 100 mg/kg, and DDC+obeticholic acid 30 mg/kg (total 7 days). After 7 days of treatment, the mice were sacrificed and then the blood was collected from the heart. Thereafter, the levels of alanine aminotransferase (ALT), aspartate aminotransferase (AST), alkaline phosphatase (ALP), and bilirubin, which are blood indexes, were analyzed, and shown in FIG. 4.
# After the cholestatic liver disease mouse animal models in Example 3.1 were sacrificed and the liver tissue was harvested therefrom, the mRNA levels of fibrosis-related genes were measured by a method similar to the method in Example 2.3.
# In the cholestatic liver disease mouse models, the bile ducts were damaged and fibrosis was induced, by DDC, and accordingly, the transcriptional levels of collagen type 1 alpha 1 (Co|1α1), transforming growth factor beta 1 (TGF-β1), and collagen type I alpha 2 (Co|1α2), which are important factors in the development of fibrosis, were investigated, and the results are shown in FIG. 5.
# [6] = 0.1% DDC 3 days, then DDC + 20, 40, 80 mg/kg in diet for 4 days, depending on the concentration
smiles,measurement,setting,value
CC1(C)CCC2=C(O1)c1ccccc1C(=O)C2=O [β-lapachone],colon length shortened by DSS,[1],recovered
same,transcriptional level of Co|1α1 in liver,fibrosis-related genes [2],significantly reduced
same,transcriptional level of Co|4α1 in liver,fibrosis-related genes [2],significantly reduced
same,transcriptional level of TGF-β1 in liver,fibrosis-related genes [2],significantly reduced
same,transcriptional level of fibronectin in liver,fibrosis-related genes [2],significantly reduced
same,transcriptional level of α-SMA in liver,fibrosis-related genes [2],significantly reduced
same,mice died,[3]; 40 mg/kg orally for 14 days,50%
same,"body weight recovered, relative to initial body weight",[3]; 80 mg/kg orally (DSS alone reduced to 75% on Day 8),up to 90%
same,mice died,[3]; 80 mg/kg orally for 14 days,20%
same,colitis score,"[3]; 40 and 80 mg/kg orally, 14 days",reduced depending on the treatment concentration
same,body weight reduction by DSS,[3]; groups treated with β-lapachone 40 and 80 mg/kg orally,inhibited
same,ALP in the blood increased by DDC,[4]; [6],inhibited
same,bilirubin in the blood increased by DDC,[4]; [6],inhibited
same,effect on bilirubin and ALP compared with positive controls,"[4]; treatment after 3 days DDC, positive control obeticholic acid 30 mg/kg",excellent effect compared with ursodeoxycholic acid (UDCA) and obeticholic acid (OCA)
same,transcriptional level of Co|1α1 in liver,fibrosis-related genes [5],inhibited
same,transcriptional level of Co|1α2 in liver,fibrosis-related genes [5],inhibited
same,transcriptional level of TGF-β1 in liver,fibrosis-related genes [5],inhibited
